# Measured values taken from patent US20200331904A1, “3-AMINO-[1,2,4]-TRIAZOLE DERIVATIVES AND THEIR USE FOR CONTROLLING UNDESIRED PLANT GROWTH” (Bayer CropScience Aktiengesellschaft, priority 2017, published 2020).
# What was measured:
# Assay type in all cases: in vivo
# Matricaria inodora = assay: Pre-emergence herbicidal efficacy, MATIN
# Method in brief: (§1)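 Seeds were sown in pots and covered with soil; WP or EC formulations were sprayed onto the soil surface as aqueous suspension or emulsion with 0.5% additive. Pots were kept in a greenhouse, and after about 3 weeks damage was rated visually as percent versus untreated controls (100% = plants dead, 0% = like control).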
# Viola tricolor [1] = assay: Pre-emergence herbicidal efficacy, VIOTR
# Method in brief: as §1
# Stellaria media = assay: Pre-emergence herbicidal efficacy, STEME
# Method in brief: as §1
# Veronica persica [2] = assay: Post-emergence herbicidal efficacy, VERPE
# Text: (§2) ABUTH: Abutilon theophrasti ALOMY: Alopecurus myosuroides AMARE: Amaranthus retroflexus AVEFA: Avena fatua CYPES: Cyperus esculentus ECHCG: Echinochloa crus-galli LOLMU: Lolium multiflorum MATIN: Matricaria inodora PHBPU: Ipomoea purpurea POLCO: Polygonum convolvulus SETVI: Setaria viridis STEME: Stellaria media VERPE: Veronica persica VTOTR: Viola tricolor
# (§3) C.2 Post-Emergence Herbicidal Action and Crop Plant Compatibility
# (§4) Seeds of monocotyledonous and dicotyledonous weeds and crop plants are placed in sandy loam in plastic or organic planting pots, covered with soil and cultivated in a greenhouse under controlled growth conditions. 2 to 3 weeks after sowing, the test plants are treated at the one-leaf stage. The compounds of the invention, formulated in the form of wettable powders (WP) or as emulsion concentrates (EC), are then sprayed onto the green parts of the plants as aqueous suspension or emulsion with addition of 0.5% additive at a water application rate of […] (converted). After the test plants had been kept in the greenhouse under optimum growth conditions for about 3 weeks, the activity of the preparations is rated visually in comparison to untreated controls. For example, 100% activity=the plants have died, 0% activity=like control plants.
# Viola tricolor [3] = assay: Post-emergence herbicidal efficacy, VIOTR
# Text: as §2, §3, §4
# Veronica persica [4] = assay: Pre-emergence herbicidal efficacy, VERPE; conditions: scored visually after about 3 weeks vs untreated controls
# Method in brief: as §1
# Amaranthus retroflexus = assay: Pre-emergence herbicidal efficacy, AMARE; conditions: scored visually after about 3 weeks vs untreated controls
# Method in brief: as §1
# Setaria viridis = assay: Pre-emergence herbicidal efficacy, SETVI; conditions: Table B1, application rate 320 g/ha, scored visually after about 3 weeks vs untreated controls
# Text: (§5) C.1 Pre-Emergence Herbicidal Action and Crop Plant Compatibility
# (§6) Seeds of monocotyledonous and dicotyledonous weed plants and crop plants are placed in plastic or organic planting pots and covered with soil. The compounds of the invention, formulated in the form of wettable powders (WP) or as emulsion concentrates (EC), are then applied onto the surface of the covering soil as aqueous suspension or emulsion with addition of 0.5% additive at a water application rate of […] (converted). After the treatment, the pots are placed in a greenhouse and kept under good growth conditions for the trial plants. After about 3 weeks, the effect of the preparations is scored visually in comparison with untreated controls as percentages. For example, 100% activity=the plants have died, 0% activity=like control plants.
# as §2
# Echinochloa crus-galli = assay: Pre-emergence herbicidal efficacy, ECHCG; conditions: Table B1, application rate 320 g/ha, scored visually after about 3 weeks vs untreated controls
# Text: as §5, §6, §2
# Polygonum convolvulus = assay: Pre-emergence herbicidal efficacy, POLCO; conditions: scored visually after about 3 weeks vs untreated controls
# Method in brief: as §1
# Abutilon theophrasti = assay: Pre-emergence herbicidal efficacy, ABUTH; conditions: Table B1, application rate 320 g/ha, scored visually after about 3 weeks vs untreated controls
# Text: as §5, §6, §2
# Lolium rigidum = assay: Pre-emergence herbicidal efficacy, LOLRI; conditions: Table B1, application rate 320 g/ha, scored visually after about 3 weeks vs untreated controls
# Text: C.1 Pre-Emergence Herbicidal Action and Crop Plant Compatibility Seeds of monocotyledonous and dicotyledonous weed plants and crop plants are placed in plastic or organic planting pots and covered with soil. The compounds of the invention, formulated in the form of wettable powders (WP) or as emulsion concentrates (EC), are then applied onto the surface of the covering soil as aqueous suspension or emulsion with addition of 0.5% additive at a water application rate of […] (converted). After the treatment, the pots are placed in a greenhouse and kept under good growth conditions for the trial plants. After about 3 weeks, the effect of the preparations is scored visually in comparison with untreated controls as percentages. For example, 100% activity=the plants have died, 0% activity=like control plants. […] Here, for example, compound Nos. I-214 and I-196, when applied pre-emergence, have very good activity (80% to 100% herbicidal activity) against harmful plants such as Abutilon theophrasti, Amaranthus retroflexus, Echinochloa crus-galli, Lolium rigidum, Matricaria inodora, Polygonum convolvulus, Setaria viridis, Stellaria media, Veronica persica and Viola tricolor at an application rate of 0.32 kg of active substance or less per hectare. At the same time, some of the compounds according to the invention leave Gramineae crops such as barley, wheat, rye, millet/sorghum, corn, rice or sugar cane virtually undamaged when applied pre-emergence, even at high active compound dosages. In addition, some substances are also harmless to dicotyledonous crops such as soya, cotton, oilseed rape or sugar beet.
# [5] = application rate 320 g/ha, scored visually after about 3 weeks
# [6] = application rate 320 g/ha, rated visually after about 3 weeks (Table B7)
# [7] = application rate 1280 g/ha, rated visually after about 3 weeks
# [8] = Table B1, application rate 320 g/ha
# [9] = Table B1, application rate 320 g/ha, scored visually after about 3 weeks vs untreated controls
# [10] = Table B2, application rate 320 g/ha
# [11] = Table B2, application rate 320 g/ha, scored visually after about 3 weeks vs untreated controls
SMILES,Herbicidal efficacy against MATIN (Matricaria inodora; [5]),Herbicidal efficacy against VIOTR (Viola tricolor [1]; [5]),Herbicidal efficacy against STEME (Stellaria media; [5]),Herbicidal efficacy against VERPE (Veronica persica [2]; [6]),Herbicidal efficacy against VERPE (Veronica persica [2]; [7]),Herbicidal efficacy against VIOTR (Viola tricolor [3]; [6]),Herbicidal efficacy against VIOTR (Viola tricolor [3]; [7]),other results
Cc1ccc2c(c1)[C@H](Nc1nc3n(n1)CCN(S(=O)(=O)c1ccccc1Cl)C3)[C@@H](C)C2 [Example I-195],90%,100%,100%,80%,90%,80%,90%,
[O-][S+]1CCCCn2nc(NC3CCCc4ccccc43)nc21 (centres unmarked) [Example I-249],,,,,80%,,80%,Herbicidal efficacy against VERPE (Veronica persica [4]; [8]): 100%; Herbicidal efficacy against MATIN (Matricaria inodora; [9]): 100%; Herbicidal efficacy against VIOTR (Viola tricolor [1]; [9]): 100%; Herbicidal efficacy against STEME (Stellaria media; [9]): 100%; Herbicidal efficacy against AMARE (Amaranthus retroflexus; [8]): 100%; Herbicidal efficacy against SETVI (Setaria viridis): 100%; Herbicidal efficacy against ECHCG (Echinochloa crus-galli): 100%; Herbicidal efficacy against POLCO (Polygonum convolvulus; [8]): 100%; Herbicidal efficacy against ABUTH (Abutilon theophrasti): 100%
CC(=O)N1CCn2nc(NC3CCOc4ccccc43)nc2C1 (centres unmarked) [Example I-068],100%,100%,100%,,90%,,80%,
Cc1ccc2c(c1)[C@H](Nc1nc3n(n1)CCN(S(=O)(=O)Cc1ccccc1)C3)[C@@H](C)C2 [Example I-194],90%,100%,100%,100%,,80%,,
Cc1ccc2c(c1)C(Nc1nc3n(n1)CCN(C(=O)c1cccc(Cl)c1)C3)C(C)C2 (centres unmarked) [Example I-170],90%,100%,100%,90%,,80%,,
O=S(=O)(C1CC1)N1CCn2nc(NC3CCCc4ccccc43)nc2C1 (centres unmarked) [Example I-087],100%,100%,100%,80%,90%,80%,80%,
Cc1ccc2c(c1)[C@H](Nc1nc3n(n1)CCN(S(=O)(=O)C1CC1)C3)[C@@H](C)C2 [Example I-192],,,,80%,,80%,,Herbicidal efficacy against VERPE (Veronica persica [4]; [10]): 100%; Herbicidal efficacy against MATIN (Matricaria inodora; [11]): 100%; Herbicidal efficacy against VIOTR (Viola tricolor [1]; [11]): 100%; Herbicidal efficacy against STEME (Stellaria media; [11]): 100%; Herbicidal efficacy against AMARE (Amaranthus retroflexus; [10]): 100%; Herbicidal efficacy against POLCO (Polygonum convolvulus; [10]): 100%
Cc1ccc2c(c1)[C@H](Nc1nc3n(n1)CCN(S(=O)(=O)Cc1ccccc1)C3)CCC2 [Example I-202],90%,100%,100%,80%,,80%,,
Cc1ccc2c(c1)C(Nc1nc3n(n1)CCCN3S(=O)(=O)C1CC1)CCC2 (centres unmarked) [Example I-327],100%,100%,100%,90%,,80%,,Herbicidal efficacy against VERPE (Veronica persica [4]; [10]): 100%; Herbicidal efficacy against MATIN (Matricaria inodora; [11]): 100%; Herbicidal efficacy against VIOTR (Viola tricolor [1]; [11]): 100%; Herbicidal efficacy against STEME (Stellaria media; [11]): 100%; Herbicidal efficacy against AMARE (Amaranthus retroflexus; [10]): 100%
O=C1CCn2nc(NC3CCc4ccccc43)nc2N1CC1CC1 (centres unmarked) [Example I-219],100%,100%,100%,,90%,,80%,
O=C1CCn2nc(NC3CCOc4ccccc43)nc2N1Cc1cccc(C(F)(F)F)c1 (centres unmarked) [Example I-273],80%,100%,100%,,100%,,90%,
Cc1ccc2c(c1)[C@H](Nc1nc3n(n1)CCCS3)CCO2 [Example I-376],,,,,,,,Herbicidal efficacy against VERPE (Veronica persica [4]; [8]): 100%; Herbicidal efficacy against MATIN (Matricaria inodora; [9]): 100%; Herbicidal efficacy against VIOTR (Viola tricolor [1]; [9]): 100%; Herbicidal efficacy against STEME (Stellaria media; [9]): 100%; Herbicidal efficacy against AMARE (Amaranthus retroflexus; [8]): 100%; Herbicidal efficacy against SETVI (Setaria viridis): 100%; Herbicidal efficacy against LOLRI (Lolium rigidum): 100%; Herbicidal efficacy against ECHCG (Echinochloa crus-galli): 100%; Herbicidal efficacy against POLCO (Polygonum convolvulus; [8]): 100%; Herbicidal efficacy against ABUTH (Abutilon theophrasti): 100%
Cc1ccc2c(c1)[C@H](Nc1nc3n(n1)CCN(C(=O)C1CC1)C3)CCC2 [Example I-182],,,,,,,,Herbicidal efficacy against VERPE (Veronica persica [4]; [8]): 100%; Herbicidal efficacy against MATIN (Matricaria inodora; [9]): 100%; Herbicidal efficacy against VIOTR (Viola tricolor [1]; [9]): 100%; Herbicidal efficacy against STEME (Stellaria media; [9]): 100%; Herbicidal efficacy against AMARE (Amaranthus retroflexus; [8]): 100%; Herbicidal efficacy against SETVI (Setaria viridis): 100%; Herbicidal efficacy against LOLRI (Lolium rigidum): 100%; Herbicidal efficacy against ECHCG (Echinochloa crus-galli): 90%; Herbicidal efficacy against POLCO (Polygonum convolvulus; [8]): 100%; Herbicidal efficacy against ABUTH (Abutilon theophrasti): 100%
[O-][S+]1CCCCn2nc(NC3CCOc4ccccc43)nc21 (centres unmarked) [Example I-247],100%,100%,100%,,80%,,80%,
